From patent US20040249128A1, “Molecules for disease detection and treatment” (priority 2001, published 2004)

Columns and labels:
[1] = tested on: human fibroblastic IMR-90 cells; conditions: cited from earlier work
endothelial cell lines = assay: Microarray expression analysis of endothelial cell lines treated with TNF-α; format: cell-based, human; conditions: 10 ng/ml TNF-α, within four hours; in five out of the eight endothelial cell lines
[2] = tested on: bovine aortic endothelial cells; conditions: confluent cells; cited from earlier work
[3] = tested on: human umbilical vein endothelial cells (HVECs); conditions: TNF-α treated compared with untreated cells; cited from earlier work
[4] = tested on: vascular smooth muscle cells (SMCs); conditions: cited from earlier work
dendritic cells = assay: Microarray expression analysis during differentiation and maturation of dendritic cells; format: cell-based, human; conditions: maturation of dendritic cells induced by TNF-alpha, versus immature dendritic cells (Lci)
Method: Human CD34 positive precursor cells were isolated by positive immunomagnetic selection from the leukapheresis of normal volunteer donors who had undergone G-CSF-induced stem cell mobilization. The purified CD34+ cells were cultured in vitro for 10 days in the presence of recombinant GM-CSF, Stem Cell Factor, TNF-alpha, TGF-beta1, and Flt3-Ligand. The resulting expanded cell population was enriched for cell cluster-forming immature dendritic cells (Lci) by sedimentation over a 7.5% BSA column at 1 g for 30 min. Immature dendritic cells were cultured for two additional days in the presence of the same combination of cytokines supplemented with LPS, IL-1beta, TNF-alpha, or double strand RNA. In addition, cluster-forming immature dendritic cells were disrupted by vigorous pipetting and cultured for two additional days in the presence of the same combination of cytokines without addition of any additional factor. The partially mature dendritic cells derived by mechanical disruption of cell clusters are characterized by the presence of intracellular rod-shaped structures called Birbeck's Granules. The dendritic cell population produced using this method was called Birbeck's Granule-positive dendritic cells, or BG. […]

[5] = intranasal; greater than those produced by hydrocortisone; cited from earlier work

Compound | suppression of [3H]proline incorporation [1] | expression of SEQ ID NO:58 (endothelial cell lines) | suppression of [3H]proline incorporation [2] | increase of cellular secretions of MCP-1 [3] [fold] | relative proportion of collagen types IV and V [4] | incorporation of [3H]proline into collagenase-digestible proteins (CDP) and noncollagenous proteins (NCP) ([4]; confluent cultures) | expression of SEQ ID NO:96 (dendritic cells) | anti-inflammatory and vasoconstrictive effects relative to hydrocortisone [5] [times]
TNF-α | not observed | downregulated by at least two-fold | not observed | 119 | decreases | suppresses | greater than two-fold expression | 
C[C@H]1C[C@H]2[C@@H]3CCC4=CC(=O)C=C[C@]4(C)[C@@]3(Cl)[C@@H](O)C[C@]2(C)[C@@]1(O)C(=O)CO [beclomethasone, Beclomethasone] |  |  |  |  |  |  |  | 5000
